Measured values reported in patent US9617289B2, “RSV antiviral compounds” (JANSSEN R&D IRELAND, priority 2012, dated 2017).

Columns and labels:
rgRSV224 virus = assay: Antiviral activity: inhibition of rgRSV224 (GFP-expressing RSV) replication in HeLa cells; format: cell-based, respiratory syncytial virus; settings: human respiratory syncytial virus, HeLa, 72 h, read-out: RSV-wt_pEC50, rgRSV224 (MOI=0.02) in HeLa cells, GFP expression three days post-virus exposure
Procedure, shortened: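 HeLa cells infected with GFP-expressing rgRSV224 at MOI 0.02 alongside 4-fold compound dilutions in duplicate (0.5% DMSO). Incubated 3 days at 37 °C; EC50 taken as 50% inhibition of GFP expression by laser microscopy. CC50 measured in parallel uninfected cells by ATP content after 3 days; SI = CC50/EC50.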

Compound	melting point [°C]	EC50 (rgRSV224 virus) [nM]
CS(=O)(=O)CCCn1c(CN2C(=O)C3(CCN(C(=O)C4CC4)CC3)c3ccncc32)nc2cc(Cl)ccc21 [Compound 90, 1′-({5-Chloro-1-[3-(methylsulfonyl)propyl]-1H-benzimidazol-2-yl}methyl)-1-(cyclopropylcarbonyl)spiro[piperidine-4,3′-pyrrolo[2,3-c]pyridin]-2′(1′H)-one]	208.64	0.0468
CS(=O)(=O)N1CC2(C1)C(=O)N(Cc1nc3cc(Cl)ccc3n1CCCC#N)c1ccccc12 [Compound 94, 4-(5-Chloro-2-{[1-(methylsulfonyl)-2′-oxospiro[azetidine-3,3′-indol]-1′(2′H)-yl]methyl}-1H-benzimidazol-1-yl)-butanenitrile]	214.11	0.129
CS(=O)(=O)CCCn1c(CN2C(=O)C3(CCN(S(=O)(=O)c4cccs4)CC3)c3ccccc32)nc2cc(Cl)ccc21 [Compound 102]	233.06	1.45
CNC(=O)OC1CC2(C1)C(=O)N(Cc1nc3cc(Cl)ccc3n1CCCS(C)(=O)=O)c1ccccc12 [Compound 104, (1R,3R)-1′-((5-chloro-1-(3-(methylsulfonyl)propyl)-1H-benzo[d]imidazol-2-yl)methyl)-2′-oxospiro[cyclobutane-1,3′-indoline]-3-yl methylcarbamate]	204.17	0.0229
CS(=O)(=O)N1CCC2(CC1)C(=O)N(Cc1cc3cc(Cl)ccc3n1CCCC#N)c1cnccc12 [Compound 105, 4-(5-Chloro-2-{[1-(methylsulfonyl)-2′-oxospiro[piperidine-4,3′-pyrrolo[2,3-c]pyridin]-1′(2′H)-yl]methyl}-1H-indol-1-yl)butanenitrile]	145.3	0.0832
CC(=O)NS(=O)(=O)N1CCC2(CC1)C(=O)N(Cc1cc3cc(Cl)ccc3n1CCCCF)c1cnccc12 [Compound 114, N-[(1′-{[5-Chloro-1-(4-fluorobutyl)-1H-indol-2-yl]methyl}-2′-oxo-1′,2′-dihydro-1H-spiro[piperidine-4,3′-pyrrolo[2,3-c]-pyridin]-1-yl)sulfonyl]acetamide]	236.92	0.427
CC(=O)NS(=O)(=O)N1CC2(C1)C(=O)N(Cc1cc3cc(Cl)ccc3n1CCCC#N)c1ccccc12 [Compound 117, N-[(1′-{[5-Chloro-1-(3-cyanopropyl)-1H-indol-2-yl]methyl}-2′-oxo-1′,2′-dihydro-1H-spiro[azetidine-3,3′-indol]-1-yl)sulfonyl]acetamide]	182.85	10
CC(C)NC(=O)N[C@H]1C[C@]2(C1)C(=O)N(Cc1nc3cc(Cl)ccc3n1CCCC#N)c1ccccc12 [Compound 143, 1-((1s,3s)-1′-((5-chloro-1-(3-cyanopropyl)-1H-benzo[d]imidazol-2-yl)methyl)-2′-oxospiro[cyclobutane-1,3′-indolin]-3-yl)-3-isopropylurea]	242.49	3.31
CC(C)NC(=O)N[C@H]1C[C@@]2(C1)C(=O)N(Cc1nc3cc(Cl)ccc3n1CCCC#N)c1ccccc12 [Compound 144, 1-((1r,3r)-1′-((5-chloro-1-(3-cyanopropyl)-1H-benzo[d]imidazol-2-yl)methyl)-2′-oxospiro[cyclobutane-1,3′-indolin]-3-yl)-3-isopropylurea]	219.9	0.229
CC(=O)N[C@H]1C[C@]2(C1)C(=O)N(Cc1nc3cc(Cl)ccc3n1CCCC#N)c1ccccc12 [Compound 145, N-((1s,3s)-1′-((5-chloro-1-(3-cyanopropyl)-1H-benzo[d]imidazol-2-yl)methyl)-2′-oxospiro[cyclobutane-1,3′-indolin]-3-yl)acetamide]	250.91	0.302
CC(=O)N[C@H]1C[C@@]2(C1)C(=O)N(Cc1nc3cc(Cl)ccc3n1CCCC#N)c1ccccc12 [Compound 146, N-((1r,3r)-1′-((5-chloro-1-(3-cyanopropyl)-1H-benzo[d]imidazol-2-yl)methyl)-2′-oxospiro[cyclobutane-1,3′-indolin]-3-yl)acetamide]	194.77	0.501
N#CCCCn1c(CN2C(=O)C3(CCN(C(=O)OCCO)CC3)c3ccncc32)cc2cc(Cl)ccc21 [Compound 147, 2-Hydroxyethyl 1′-{[5-chloro-1-(3-cyanopropyl)-1H-indol-2-yl]methyl}-2′-oxo-1′,2′-dihydro-1H-spiro[piperidine-4,3′-pyrrolo[2,3-c]pyridine]-1-carboxylate]	144.55	0.055
CC(C)(O)C(=O)N1CCC2(CC1)C(=O)N(Cc1nc3cc(Cl)ccc3n1CCCCO)c1cnccc12 [Compound 164, 1′-{[5-Chloro-1-(4-hydroxybutyl)-1H-benzimidazol-2-yl]methyl}-1-(2-hydroxy-2-methylpropanoyl)spiro[piperidine-4,3′-pyrrolo[2,3-c]pyridin]-2′(1′H)-one]	191.87	0.126
CC(C)(O)C(=O)N1CC2(C1)C(=O)N(Cc1cc3cc(Cl)ccc3n1CCCCO)c1ccccc12 [Compound 166, 1′-{[5-Chloro-1-(4-hydroxybutyl)-1H-indol-2-yl]methyl}-1-(2-hydroxy-2-methylpropanoyl)spiro[azetidine-3,3′-indol]-2′(1′H)-one]	157.11	0.537
CC(C)(O)C(=O)N1CCC2(CC1)C(=O)N(Cc1nc3cc(Cl)ccc3n1CCCCF)c1cnccc12 [Compound 169, 1′-{[5-Chloro-1-(4-fluorobutyl)-1H-benzimidazol-2-yl]methyl}-1-(2-hydroxy-2-methylpropanoyl)spiro[piperidine-4,3′-pyrrolo[2,3-c]pyridin]-2′(1′H)-one]	222.72	0.0275
CC(=O)NS(=O)(=O)N1CCC2(CC1)C(=O)N(Cc1cc3cc(Cl)ccc3n1CCCC#N)c1cnccc12 [Compound 172, N-[(1′-{[5-Chloro-1-(3-cyanopropyl)-1H-indol-2-yl]methyl}-2′-oxo-1′,2′-dihydro-1H-spiro[piperidine-4,3′-pyrrolo[2,3-c]pyridin]-1-yl)sulfonyl]acetamide]	230.52	0.0661
N#CCCCn1c(CN2c3ccccc3[C@]3(C[C@@H](O)C3)C2=O)nc2cc(Cl)ccc21 [Compound 176, 4-(5-chloro-2-(((1r,3r)-3-hydroxy-2′-oxospiro[cyclobutane-1,3′-indolin]-1′-yl)methyl)-1H-benzo[d]imidazol-1-yl)butanenitrile]	217.25	0.363
COC(=O)N1CCC2(CC1)C(=O)N(Cc1nc3cc(Cl)ccc3n1CCCCF)c1cnccc12 [Compound 178, Methyl 1′-{[5-chloro-1-(4-fluorobutyl)-1H-benzimidazol-2-yl]methyl}-2′-oxo-1′,2′-dihydro-1H-spiro[piperidine-4,3′-pyrrolo[2,3-c]pyridine]-1-carboxylate]	182.68	0.0288
CC(C)OC(=O)N1CCC2(CC1)C(=O)N(Cc1nc3cc(Cl)ccc3n1CCCCF)c1cnccc12 [Compound 179, 1-Methylethyl 1′-{[5-chloro-1-(4-fluorobutyl)-1H-benzimidazol-2-yl]methyl}-2′-oxo-1′,2′-dihydro-1H-spiro[piperidine-4,3′-pyrrool[2,3-c]pyridine]-1-carboxylate]	198.92	0.0437
N#CCCCn1c(CN2C(=O)C3(CN(S(=O)(=O)C4CC4)C3)c3ccccc32)nc2cc(Cl)ccc21 [Compound 180, 4-(5-Chloro-2-{[1-(cyclopropylsulfonyl)-2′-oxospiro[azetidine-3,3′-indol]-1′(2′H)-yl]methyl}-1H-benzimidazol-1-yl)butanenitrile]	190.42	0.117
N#CCCCn1c(CN2C(=O)C3(CCN(C(=O)C(O)(C(F)(F)F)C(F)(F)F)CC3)c3ccncc32)nc2cc(Cl)ccc21 [Compound 181, 4-[5-Chloro-2-({2′-oxo-1-[3,3,3-trifluoro-2-hydroxy-2-(trifluoromethyl)propanoyl]spiro[piperidine-4,3′-pyrrolo[2,3-c]pyridin]-1′(2′H)-yl}methyl)-1H-benzimidazol-1-yl]butanenitrile]	240.41	0.251
CC(C)(O)C(=O)N1CC2(C1)C(=O)N(Cc1nc3cc(Cl)ccc3n1CCCCF)c1ccccc12 [Compound 183, 1′-{[5-Chloro-1-(4-fluorobutyl)-1H-benzimidazol-2-yl]methyl}-1-(2-hydroxy-2-methylpropanoyl)spiro[azetidine-3,3′-indol]-2′(1′H)-one]	219.71	0.0759
